Where a name gives a salt, the structure may show the parent alone.
Target: T1, human recombinant P2X7 receptor (Homo sapiens, UniProt Q99572)
T1 construct: expressed in transfected cells
T1 sequence (Q99572 1-595): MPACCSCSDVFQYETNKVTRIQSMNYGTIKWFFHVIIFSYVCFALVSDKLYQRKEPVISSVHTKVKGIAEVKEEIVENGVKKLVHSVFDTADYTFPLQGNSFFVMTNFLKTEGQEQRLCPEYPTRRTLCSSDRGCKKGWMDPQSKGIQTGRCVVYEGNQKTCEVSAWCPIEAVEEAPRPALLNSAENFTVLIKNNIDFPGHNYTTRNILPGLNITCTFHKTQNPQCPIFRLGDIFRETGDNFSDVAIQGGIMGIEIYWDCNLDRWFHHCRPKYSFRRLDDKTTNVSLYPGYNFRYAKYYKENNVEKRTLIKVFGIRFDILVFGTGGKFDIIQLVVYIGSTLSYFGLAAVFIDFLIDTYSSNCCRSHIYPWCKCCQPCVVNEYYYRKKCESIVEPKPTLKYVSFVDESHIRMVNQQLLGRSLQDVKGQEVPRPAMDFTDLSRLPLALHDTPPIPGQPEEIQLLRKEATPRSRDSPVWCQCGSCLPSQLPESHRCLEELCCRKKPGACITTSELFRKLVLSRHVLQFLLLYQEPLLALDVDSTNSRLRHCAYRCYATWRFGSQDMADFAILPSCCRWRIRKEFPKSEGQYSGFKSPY
Test: YO-PRO assay: P2X7 receptor antagonistic activity in HEK cells stably expressing P2X7
Format: cell-based
Conditions: antagonistic activity with respect to the P2X7 receptor, read-out: IC50
Experimental: The P2X7 receptor antagonistic activity of the compounds of formula (I) is determined in accordance with the following experimental method.
Cell Line Generation and YO-PRO Assay
Cell line generation was performed in general according to established molecular cloning protocols. Specifically, RNA was extracted from human whole blood using the Qiagen RNeasy kit (Qiagen, CH) according to the manufacturer's instructions. Subsequently cDNA was made (Superscript II, Invitrogen AG, CH) and the human P2X7 gene (genbank ref. BC011913) was amplified with the following primers: […] and […]. The amplified sequence was subsequently ligated into a pcDNA3.1 (+) NotI, NheI digested plasmid. Human embryonic kidney (HEK) cells (ATCC CRL—1573, Manassas, Va., USA) were transfected with the pcDNA3.1 (+).hP2X7 plasmid using lipofectamine 2000 (Invitrogen AG, CH) according to the manufacturer's instructions. Following a 24 h exposure to DNA, cells were trypsinized and re-seeded at low density in the presence of 250 μg Geneticin. Geneticin resistant cells were then selected during two consecutive rounds of cloning by serial limiting dilution with visual inspection. Individual clones were screened for P2X7 expression by applying ATP and recording the resultant uptake of YO-PRO1. Specific cell clones were chosen based on RNA and protein expression. HEK cells stably expressing P2X7 were used to screen drugs using the YO-PRO1 assay. Cells were grown to confluency in adherent culture at 37° C. in a humidified 5% CO2 incubator (split 1/5 every 3-4 days with DMEM, 10% FCS, 1% Penicillin/Streptomycin, 250 μg/ml Geneticin). Adherent cells were detached by incubation with Trypsine (1 ml per 165 cm^2 dish) for 2 minutes, then washed off with 10 ml PBS (without Mg^2+ and Ca^2+), and resuspended in DMEM, 10% FCS, 1% Penicillin/Streptomycin, no Geneticin. 10′000 cells per well (48 hours before the assay) or 25′000 cells per well (Vi-cell XR (Beckman Coulter) (24 hours before the assay) in 50 μl full medium were seeded on 384-well black-wall, clear bottom plates, that were coated before with 10 μl per well Poly-L-Lysine, incubated for 30-60 minutes at 37° C. and washed once with PBS. Medium was removed from cells and 50 μl of assay buffer containing 0.5 μM YO-PRO-1 was added into the wells. Solutions of antagonist compounds were prepared by serial dilutions of a 10 mM DMSO solution of the antagonist into PBS using a BioMek (Beckman Coulter). Each concentration was performed in duplicate. For IC50 measurements 10 concentration points were measured (10 μM being the highest concentration followed by 9 serial dilution steps 1/3). The cells were incubated with the antagonists of the present invention together with ATP at a final concentration of 250 μM for 90 minutes. During this time period, four time points were taken. Each time point comprised the average of several measurements made within a few seconds. Fluorescence was measured in the FLIPR tetra (Molecular Devices) using the filters appropriate for YO-PRO-1 fluorescence (excitation 485/20, emission 530/25). The FLIPR tetra was equipped with Molecular Devices Screen Works system control software to define and run experimental protocols. […] For IC50 measurements the maximum intensity is plotted against the concentration of compound to determine IC50 values.

| IC50 [nM] | SMILES |
| --- | --- |
| 87 | Cc1ncc([C@H](CNC(=O)c2ccc3[nH]ccc3c2Cl)N2CCCCC2C)cn1 (mixture of isomers) [Example 77, 4-Chloro-1H-indole-5-carboxylic acid [(R)-2-(2-methyl-piperidin-1-yl)-2-(2-methyl-pyrimidin-5-yl)-ethyl]-amide] |
| 3.9 | O=C(NCC(c1cnc(C(F)(F)F)nc1)N1CCOCC1)c1ccc2[nH]ccc2c1Cl (racemic) [Example 1, rac-4-Chloro-1H-indole-5-carboxylic acid [2-morpholin-4-yl-2-(2-trifluoromethyl-pyrimidin-5-yl)-ethyl]-amide] |
| 4.3 | O=C(NCC(c1ccc(Cl)nc1)N1CCC(F)(F)CC1)c1ccc2[nH]ccc2c1Cl (racemic) [Example 2, rac-4-Chloro-1H-indole-5-carboxylic acid [2-(6-chloro-pyridin-3-yl)-2-(4,4-difluoro-piperidin-1-yl)-ethyl]-amide] |
| 19 | Cc1ccc(C(CNC(=O)c2ccc3[nH]ccc3c2Cl)N2CCOCC2)cn1 (racemic) [Example 7, rac-4-Chloro-1H-indole-5-carboxylic acid [2-(6-methyl-pyridin-3-yl)-2-morpholin-4-yl-ethyl]-amide] |
| 12 | O=C(NCC(c1cnc(C(F)(F)F)nc1)N1CCC(F)(F)CC1)c1ccc2[nH]ccc2c1Cl (racemic) [Example 8, rac-4-Chloro-1H-indole-5-carboxylic acid [2-(4,4-difluoro-piperidin-1-yl)-2-(2-trifluoromethyl-pyrimidin-5-yl)-ethyl]-amide] |
| 7.7 | O=C(NCC(c1cnc(C2CC2)nc1)N1CCOCC1)c1ccc2[nH]ccc2c1Cl (racemic) [Example 9, rac-4-Chloro-1H-indole-5-carboxylic acid [2-(2-cyclopropyl-pyrimidin-5-yl)-2-morpholin-4-yl-ethyl]-amide] |
| 5.1 | O=C(NCC(c1ccc(C(F)(F)F)nc1)N1CCOCC1)c1ccc2[nH]ccc2c1Cl (racemic) [Example 10, rac-4-Chloro-1H-indole-5-carboxylic acid [2-morpholin-4-yl-2-(6-trifluoromethyl-pyridin-3-yl)-ethyl]-amide] |
| 14 | COc1ccc(C(CNC(=O)c2ccc3[nH]ccc3c2Cl)N2CCOCC2)cn1 (racemic) [Example 11, rac-4-Chloro-1H-indole-5-carboxylic acid [2-(6-methoxy-pyridin-3-yl)-2-morpholin-4-yl-ethyl]-amide] |
| 2300 | Cc1ncc(C(CNC(=O)c2ccc3[nH]ccc3c2Cl)N(C)C)cn1 (racemic) [Example 12, rac-4-Chloro-1H-indole-5-carboxylic acid [2-dimethylamino-2-(2-methyl-pyrimidin-5-yl)-ethyl]-amide] |
| 831 | Cc1ncc(C(CNC(=O)c2ccc3[nH]ccc3c2Cl)N2CCC2)cn1 (racemic) [Example 13, rac-4-Chloro-1H-indole-5-carboxylic acid [2-azetidin-1-yl-2-(2-methyl-pyrimidin-5-yl)-ethyl]-amide] |
| 286 | Cc1ncc(C(CNC(=O)c2ccc3[nH]ccc3c2Cl)N2CCCC2)cn1 (racemic) [Example 14, rac-4-Chloro-1H-indole-5-carboxylic acid [2-(2-methyl-pyrimidin-5-yl)-2-pyrrolidin-1-yl-ethyl]-amide] |
| 85 | CCN(CC)C(CNC(=O)c1ccc2[nH]ccc2c1Cl)c1cnc(C)nc1 (racemic) [Example 15, rac-4-Chloro-1H-indole-5-carboxylic acid [2-diethylamino-2-(2-methyl-pyrimidin-5-yl)-ethyl]-amide] |
| 9.7 | Cc1ncc(C(CNC(=O)c2ccc3[nH]ccc3c2Cl)N2CCCCC2)cn1 (racemic) [Example 16, rac-4-Chloro-1H-indole-5-carboxylic acid [2-(2-methyl-pyrimidin-5-yl)-2-piperidin-1-yl-ethyl]-amide] |
| 9.2 | O=C(NCC(c1ccc(F)cc1)N1CCOCC1)c1ccc2[nH]ccc2c1Cl (racemic) [Example 17, rac-4-Chloro-1H-indole-5-carboxylic acid [2-(4-fluoro-phenyl)-2-morpholin-4-yl-ethyl]-amide] |
| 19 | O=C(NCC(c1cc(F)cc(F)c1)N1CCOCC1)c1ccc2[nH]ccc2c1Cl (racemic) [Example 18, rac-4-Chloro-1H-indole-5-carboxylic acid [2-(3,5-difluoro-phenyl)-2-morpholin-4-yl-ethyl]-amide] |
| 35 | CC(C)(C)OC(=O)N1CCC(C(CNC(=O)c2ccc3[nH]ccc3c2Cl)c2cccnc2)CC1 (racemic) [Example 19, rac-4-{2-[(4-Chloro-1H-indole-5-carbonyl)-amino]-1-pyridin-3-yl-ethyl}-piperidine-1-carboxylic acid tent-butyl ester] |
| 447 | O=C(NCC(c1cccnc1)C1CCNCC1)c1ccc2[nH]ccc2c1Cl (racemic) [Example 20, rac-4-Chloro-1H-indole-5-carboxylic acid (2-piperidin-4-yl-2-pyridin-3-yl-ethyl)-amide dihydrochloride] |
| 584 | CN1CCC(C(CNC(=O)c2ccc3[nH]ccc3c2Cl)c2cccnc2)CC1 (racemic) [Example 21, rac-4-Chloro-1H-indole-5-carboxylic acid [2-(1-methyl-piperidin-4-yl)-2-pyridin-3-yl-ethyl]-amide formic acid salt] |
| 126 | CC(=O)N1CCC(C(CNC(=O)c2ccc3[nH]ccc3c2Cl)c2cccnc2)CC1 (racemic) [Example 22, rac-4-Chloro-1H-indole-5-carboxylic acid [2-(1-acetyl-piperidin-4-yl)-2-pyridin-3-yl-ethyl]-amide] |
| 56 | CS(=O)(=O)N1CCC(C(CNC(=O)c2ccc3[nH]ccc3c2Cl)c2cccnc2)CC1 (racemic) [Example 23, rac-4-Chloro-1H-indole-5-carboxylic acid [2-(1-methanesulfonyl-piperidin-4-yl)-2-pyridin-3-yl-ethyl]-amide] |
| 4.7 | O=C(NCC(c1ccc(Cl)nc1)N1CCOCC1)c1ccc2[nH]ccc2c1Cl (racemic) [Example 24, rac-4-Chloro-1H-indole-5-carboxylic acid [2-(6-chloro-pyridin-3-yl)-2-morpholin-4-yl-ethyl]-amide] |
| 32 | O=C(NCC(c1cccnc1)N1CCOCC1)c1ccc2[nH]ccc2c1Cl (racemic) [Example 25, rac-4-Chloro-1H-indole-5-carboxylic acid (2-morpholin-4-yl-2-pyridin-3-yl-ethyl)-amide] |
| 10 | O=C(NCC(c1cncnc1)N1CCOCC1)c1ccc2[nH]ccc2c1Cl (racemic) [Example 26, rac-4-Chloro-1H-indole-5-carboxylic acid (2-morpholin-4-yl-2-pyrimidin-5-yl-ethyl)-amide] |
| 8.7 | O=C(NCC(c1cncnc1)N1CCCCC1)c1ccc2[nH]ccc2c1Cl (racemic) [Example 27, rac-4-Chloro-1H-indole-5-carboxylic acid (2-piperidin-1-yl-2-pyrimidin-5-yl-ethyl)-amide] |
| 66 | Cn1cc(C(CNC(=O)c2ccc3[nH]ccc3c2Cl)N2CCOCC2)cn1 (racemic) [Example 28, rac-4-Chloro-1H-indole-5-carboxylic acid [2-(1-methyl-1H-pyrazol-4-yl)-2-morpholin-4-yl-ethyl]-amide] |

Source: patent US9718774B2, “Indole carboxamide derivatives as P2X7 receptor antagonist” (ACTELION PHARMACEUTICALS LTD, priority 2012, dated 2017)
